Laboratory results reported in US20220281876A1, “DEGRADATION OF BRUTON'S TYROSINE KINASE (BTK) BY CONJUGATION OF BTK INHIBITORS WITH E3 LIGASE LIGAND AND METHODS OF USE” (BEIGENE, LTD., priority 2019, published 2022).

biological target: T1, BTK (Homo sapiens, UniProt Q06187); test: BTK cell degradation in Ramos cells (total BTK ELISA); format: cell-based; conditions: 16 h incubation, FastScan total BTK ELISA
T1 construct: endogenous in cells; host or cells: Ramos cells
Experimental: Ramos cells are treated with compounds diluted in 0.1% DMSO, dilution is done according to the following protocol: (1) make 1000x stock solution in DMSO from 10 mM by 5-fold dilution, total 7 doses were included; (2) make 10x solution in cell culture medium by transferring 1 ul 1000x stock solution into 99 ul medium; (3) 11 ul of 10× solution is added to cells and incubate for 16 h.
Cells in 96 well plate are harvested by centrifugation (1200 rpm), and wash once with ice-cold PBS. Then, 100 ul 1×cell extraction buffer is added in each well. The cells are placed on a shaker for 20 min at 4° C.; 5 ul lysate is transferred to 45 ul of 1×cell extraction buffer in ELISA plate, and 50 ul of the antibody cocktail is added in each well; seal the plate and incubate 1 hour at room temperature on a plate shaker; medium is discarded from the plate, tap the plated on a paper towel, wash 3×200 ul ELISA wash buffer; add 100 ul of TMB to each well and incubate the plate in the dark for 15 min at room temperature on a shaker; add 100 ul of STOP solution to each well; read absorbance at 450 nm. The BTK ELISA assay was performed using FastScan total BTK ELISA kit (Cell Signaling Cat #36609).

T1 sequence (Q06187 whole entry): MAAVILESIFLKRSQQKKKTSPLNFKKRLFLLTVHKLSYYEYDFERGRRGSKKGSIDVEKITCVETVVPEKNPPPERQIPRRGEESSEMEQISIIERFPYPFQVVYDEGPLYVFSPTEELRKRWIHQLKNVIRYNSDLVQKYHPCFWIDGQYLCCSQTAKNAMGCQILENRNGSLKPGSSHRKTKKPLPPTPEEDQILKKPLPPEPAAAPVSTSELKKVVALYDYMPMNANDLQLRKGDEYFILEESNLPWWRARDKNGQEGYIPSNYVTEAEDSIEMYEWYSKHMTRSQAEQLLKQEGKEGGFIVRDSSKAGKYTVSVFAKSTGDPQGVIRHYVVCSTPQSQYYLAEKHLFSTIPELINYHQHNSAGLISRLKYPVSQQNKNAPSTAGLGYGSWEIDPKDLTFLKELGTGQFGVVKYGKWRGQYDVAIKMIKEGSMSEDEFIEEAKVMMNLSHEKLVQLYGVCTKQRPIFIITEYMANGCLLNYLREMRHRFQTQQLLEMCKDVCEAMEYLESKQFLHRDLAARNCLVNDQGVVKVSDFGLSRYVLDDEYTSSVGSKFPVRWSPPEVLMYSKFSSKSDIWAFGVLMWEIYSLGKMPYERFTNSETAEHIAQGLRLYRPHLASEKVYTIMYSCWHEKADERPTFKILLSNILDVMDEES

DC50 [nM]	Structure (SMILES)
244	NC(=O)c1c(-c2ccc(Oc3ccccc3)cc2)nn2c1NCCC2C1CCN(C(=O)CC2CCC(N3CCN(c4ccc5c(c4)C(=O)N(C4CCC(=O)NC4=O)C5=O)CC3)CC2)CC1 (stereo in doubt) [Example 147, (7R)-7-(1-(2-(4-(4-(2-(2,6-dioxopiperidin-3-yl)-1,3-dioxoisoindolin-5-yl)piperazin-1-yl)cyclohexyl)acetyl)piperidin-4-yl)-2-(4-phenoxyphenyl)-4,5,6,7-tetrahydropyrazolo[1,5-a]pyrimidine-3-carboxamide]
128	NC(=O)c1c(-c2ccc(Oc3ccccc3)cc2)nn2c1NCC[C@H]2C1CCN(C(=O)c2cn(CCOCCOCCOCCNc3cccc4c3C(=O)N(C3CCC(=O)NC3=O)C4=O)nn2)CC1 (stereo partly drawn) [Example 8, (7S)-7-(1-(1-(2-(2-(2-(2-((2-(2,6-dioxopiperidin-3-yl)-1,3-dioxoisoindolin-4-yl)amino)ethoxy)ethoxy)ethoxy)ethyl)-1H-1,2,3-triazole-4-carbonyl)piperidin-4-yl)-2-(4-phenoxyphenyl)-4,5,6,7-tetrahydropyrazolo[1,5-a]pyrimidine-3-carboxamide]
> 10000	NC(=O)c1c(-c2ccc(Oc3ccccc3)cc2)nn2c1NCC[C@H]2C1CCN(C(=O)c2cn(CCOCCOCCOCC#Cc3cccc4c3CN(C3CCC(=O)NC3=O)C4=O)nn2)CC1 (stereo partly drawn) [Example 9, (7S)-7-(1-(1-(2-(2-(2-((3-(2-(2,6-dioxopiperidin-3-yl)-1-oxoisoindolin-4-yl)prop-2-yn-1-yl)oxy)ethoxy)ethoxy)ethyl)-1H-1,2,3-triazole-4-carbonyl)piperidin-4-yl)-2-(4-phenoxyphenyl)-4,5,6,7-tetrahydropyrazolo[1,5-a]pyrimidine-3-carboxamide]
> 10000	NC(=O)c1c(-c2ccc(Oc3ccccc3)cc2)nn2c1NCC[C@H]2C1CCN(C(=O)c2cn(CCOCCOCCOCCOCCCc3cccc4c3CN(C3CCC(=O)NC3=O)C4=O)nn2)CC1 (stereo partly drawn) [Example 10, (7S)-7-(1-(1-(15-(2-(2,6-dioxopiperidin-3-yl)-1-oxoisoindolin-4-yl)-3,6,9, 12-tetraoxapentadecyl)-1H-1,2,3-triazole-4-carbonyl)piperidin-4-yl)-2-(4-phenoxyphenyl)-4,5,6,7-tetrahydropyrazolo[1,5-a]pyrimidine-3-carboxamide]
176	NC(=O)c1c(-c2ccc(Oc3ccccc3)cc2)nn2c1NCC[C@H]2C1CCN(C(=O)c2cn(CCOCCOCCOCCOCC#Cc3cccc4c3CN(C3CCC(=O)NC3=O)C4=O)nn2)CC1 (stereo partly drawn) [Example 11, (7S)-7-(1-(1-(15-(2-(2,6-dioxopiperidin-3-yl)-1-oxoisoindolin-4-yl)-3,6,9, 12-tetraoxapentadec-14-yn-1-yl)-1H-1,2,3-triazole-4-carbonyl)piperidin-4-yl)-2-(4-phenoxyphenyl)-4,5,6,7-tetrahydropyrazolo[1,5-a]pyrimidine-3-carboxamide]
> 10000	NC(=O)c1c(-c2ccc(Oc3ccccc3)cc2)nn2c1NCC[C@H]2C1CCN(C(=O)c2cn(CCOCCOCCOCCOCCNc3ccc4c(c3)C(=O)N(C3CCC(=O)NC3=O)C4=O)nn2)CC1 (stereo partly drawn) [Example 12, (7S)-7-(1-(1-(14-((2-(2,6-dioxopiperidin-3-yl)-1,3-dioxoisoindolin-5-yl)amino)-3,6,9, 12-tetraoxatetradecyl)-1H-1,2,3-triazole-4-carbonyl)piperidin-4-yl)-2-(4-phenoxyphenyl)-4,5,6,7-tetrahydropyrazolo[1,5-a]pyrimidine-3-carboxamide]
78	NC(=O)c1c(-c2ccc(Oc3ccccc3)cc2)nn2c1NCC[C@H]2C1CCN(C(=O)c2cn(CCOCCOCCOCCOCCOCCNc3ccc4c(c3)C(=O)N(C3CCC(=O)NC3=O)C4=O)nn2)CC1 (stereo partly drawn) [Example 14, (7S)-7-(1-(1-(17-((2-(2,6-dioxopiperidin-3-yl)-1,3-dioxoisoindolin-5-yl)amino)-3,6,9, 12, 15-pentaoxaheptadecyl)-1H-1,2,3-triazole-4-carbonyl)piperidin-4-yl)-2-(4-phenoxyphenyl)-4,5,6,7-tetrahydropyrazolo[1,5-a]pyrimidine-3-carboxamide]
78	NC(=O)c1c(-c2ccc(Oc3ccccc3)cc2)nn2c1NCC[C@H]2C1CCN(C(=O)c2cn(CCOCCOCCOCCOCCOCCNc3cccc4c3C(=O)N(C3CCC(=O)NC3=O)C4=O)nn2)CC1 (stereo partly drawn) [Example 15, (7S)-7-(1-(1-(17-((2-(2,6-dioxopiperidin-3-yl)-1,3-dioxoisoindolin-4-yl)amino)-3,6,9, 12, 15-pentaoxaheptadecyl)-1H-1,2,3-triazole-4-carbonyl)piperidin-4-yl)-2-(4-phenoxyphenyl)-4,5,6,7-tetrahydropyrazolo[1,5-a]pyrimidine-3-carboxamide]
107	NC(=O)c1c(-c2ccc(Oc3ccccc3)cc2)nn2c1NCC[C@H]2C1CCN(C(=O)c2cn(CCOCCOCCOCCOCCOCCOCCNc3cccc4c3C(=O)N(C3CCC(=O)NC3=O)C4=O)nn2)CC1 (stereo partly drawn) [Example 16, (7S)-7-(1-(1-(20-((2-(2,6-dioxopiperidin-3-yl)-1,3-dioxoisoindolin-4-yl)amino)-3,6,9, 12, 15, 18-hexaoxaicosyl)-1H-1,2,3-triazole-4-carbonyl)piperidin-4-yl)-2-(4-phenoxyphenyl)-4,5,6,7-tetrahydropyrazolo[1,5-a]pyrimidine-3-carboxamide]

More lines, now with the values behind:

Structure (SMILES)	DC50 [nM]
NC(=O)c1c(-c2ccc(Oc3ccccc3)cc2)nn2c1NCC[C@H]2C1CCN(C(=O)c2cn(CCOCCCc3cccc4c3CN(C3CCC(=O)NC3=O)C4=O)nn2)CC1 (stereo partly drawn) [Example 1, (7S)-7-(1-(1-(2-(3-(2-(2,6-dioxopiperidin-3-yl)-1-oxoisoindolin-4-yl)propoxy)ethyl)-1H-1,2,3-triazole-4-carbonyl)piperidin-4-yl)-2-(4-phenoxyphenyl)-4,5,6,7-tetrahydropyrazolo[1,5-a]pyrimidine-3-carboxamide]	> 10000
NC(=O)c1c(-c2ccc(Oc3ccccc3)cc2)nn2c1NCC[C@H]2C1CCN(C(=O)c2cn(CCOCCNc3cccc4c3C(=O)N(C3CCC(=O)NC3=O)C4=O)nn2)CC1 (stereo partly drawn) [Example 2, (7S)-7-(1-(1-(2-(2-((2-(2,6-dioxopiperidin-3-yl)-1,3-dioxoisoindolin-4-yl)amino)ethoxy)ethyl)-1H-1,2,3-triazole-4-carbonyl)piperidin-4-yl)-2-(4-phenoxyphenyl)-4,5,6,7-tetrahydropyrazolo[1,5-a]pyrimidine-3-carboxamide]	> 10000
NC(=O)c1c(-c2ccc(Oc3ccccc3)cc2)nn2c1NCC[C@H]2C1CCN(C(=O)c2cn(CCOCCOCCNc3cccc4c3C(=O)N(C3CCC(=O)NC3=O)C4=O)nn2)CC1 (stereo partly drawn) [Example 3, (7S)-7-(1-(1-(2-(2-(2-((2-(2,6-dioxopiperidin-3-yl)-1,3-dioxoisoindolin-4-yl)amino)ethoxy)ethoxy)ethyl)-1H-1,2,3-triazole-4-carbonyl)piperidin-4-yl)-2-(4-phenoxyphenyl)-4,5,6,7-tetrahydropyrazolo[1,5-a]pyrimidine-3-carboxamide]	> 10000
NC(=O)c1c(-c2ccc(Oc3ccccc3)cc2)nn2c1NCC[C@H]2C1CCN(C(=O)c2cn(CCOCCOCC#Cc3cccc4c3CN(C3CCC(=O)NC3=O)C4=O)nn2)CC1 (stereo partly drawn) [Example 4, (7S)-7-(1-(1-(2-(2-((3-(2-(2,6-dioxopiperidin-3-yl)-1-oxoisoindolin-4-yl)prop-2-yn-1-yl)oxy)ethoxy)ethyl)-1H-1,2,3-triazole-4-carbonyl)piperidin-4-yl)-2-(4-phenoxyphenyl)-4,5,6,7-tetrahydropyrazolo[1,5-a]pyrimidine-3-carboxamide]	> 10000
NC(=O)c1c(-c2ccc(Oc3ccccc3)cc2)nn2c1NCC[C@H]2C1CCN(C(=O)c2cn(CCOCCOCCCc3cccc4c3CN(C3CCC(=O)NC3=O)C4=O)nn2)CC1 (stereo partly drawn) [Example 5, (7S)-7-(1-(1-(2-(2-(3-(2-(2,6-dioxopiperidin-3-yl)-1-oxoisoindolin-4-yl)propoxy)ethoxy)ethyl)-1H-1,2,3-triazole-4-carbonyl)piperidin-4-yl)-2-(4-phenoxyphenyl)-4,5,6,7-tetrahydropyrazolo[1,5-a]pyrimidine-3-carboxamide]	> 10000
NC(=O)c1c(-c2ccc(Oc3ccccc3)cc2)nn2c1NCC[C@H]2C1CCN(C(=O)c2cn(CCOCCOCCOCCCc3cccc4c3CN(C3CCC(=O)NC3=O)C4=O)nn2)CC1 (stereo partly drawn) [Example 6, (7S)-7-(1-(1-(2-(2-(2-(3-(2-(2,6-dioxopiperidin-3-yl)-1-oxoisoindolin-4-yl)propoxy)ethoxy)ethoxy)ethyl)-1H-1,2,3-triazole-4-carbonyl)piperidin-4-yl)-2-(4-phenoxyphenyl)-4,5,6,7-tetrahydropyrazolo[1,5-a]pyrimidine-3-carboxamide]	242
NC(=O)c1c(-c2ccc(Oc3ccccc3)cc2)nn2c1NCC[C@H]2C1CCN(C(=O)c2cn(CCOCCOCCNc3ccc4c(c3)C(=O)N(C3CCC(=O)NC3=O)C4=O)nn2)CC1 (stereo partly drawn) [Example 7, (7S)-7-(1-(1-(2-(2-(2-((2-(2,6-dioxopiperidin-3-yl)-1,3-dioxoisoindolin-5-yl)amino)ethoxy)ethoxy)ethyl)-1H-1,2,3-triazole-4-carbonyl)piperidin-4-yl)-2-(4-phenoxyphenyl)-4,5,6,7-tetrahydropyrazolo[1,5-a]pyrimidine-3-carboxamide]	> 10000
